In patent US20120214684A1, “COMPOSITIONS AND METHODS FOR DETECTING AND TREATING PROSTATE CARCINOMA” (UNIVERSITY OF FLORIDA RESEARCH FOUNDATION, priority 2009, published 2012):

Key:
Sox2, Oct3/4, Nanog = experiment: Western blot of stem cell markers after Docetaxel treatment; type: cell-based, human; settings: 1 nM, 2 nM, 5 nM, 10 nM docetaxel
Description: (§1) FIG. 12B is a graph depicting the cell viability of prostate cancer stem cells (CSC) and non-stem prostate cancer cells (Non-CSC) observed for up to 72 hours after treatment with Docetaxel. Cell viability was determined by quantifying the surviving prostate cancer stem cells (CSC) and non-stem prostate cancer cells (Non-CSC) in the samples exposed to 5 nM Docetaxel at Day 0, 1, 2 and 3.
(§2) Prostate cancer stem cells from metastatic prostate cancer cell lines were examined for their sensitivity to conventional cancer treatments (e.g., radiation and chemotherapy). […] Metastatic prostate stem cell lines were also treated with Docetaxel, a frontline treatment for drug-resistant cancer cells.
For the experiments described above, Western-blot analysis was performed by standard methods on isolated cancer stem cells and non-cancer stem cells. Whole cell lysates were prepared in lysis buffer with a commercially available protease inhibitor cocktail (Pierce) at 4° C., followed by centrifugation at 13,000×g for 10 min. Extracts were separated by SDS/PAGE and transferred to nitrocellulose membranes. The membranes were blocked with 5% nonfat dry milk in 20 mM Tris-HCl (pH 7.5), 500 mM sodium chloride, and 0.05% Tween 20 for 2 h and then incubated with commercially available primary antibodies in the same buffer with 1% BSA (fraction V). […]

[1] = tested on: prostate cancer stem cells (CSC) and non-stem prostate cancer cells (Non-CSC); experiment: Cell viability of CSC and Non-CSC after Docetaxel; type: cell-based, human; settings: 5 nM Docetaxel, Day 0, 1, 2 and 3
Description: as §1, §2

SMILES: CC(=O)O[C@@]12CO[C@@H]1C[C@H](O)[C@@]1(C)C(=O)[C@H](O)C3=C(C)[C@@H](OC(=O)[C@H](O)[C@@H](NC(=O)OC(C)(C)C)c4ccccc4)C[C@@](O)([C@@H](OC(=O)c4ccccc4)[C@H]21)C3(C)C [Docetaxel]
- detection of Sox2, Oct 3/4 and Nanog expression (Sox2, Oct3/4, Nanog): increased detection of Sox2, Oct 3/4 and Nanog expression with increasing dose
- cell viability of prostate cancer stem cells vs non-stem prostate cancer cells [1]: more cell viability compared to non-stem prostate cancer cells
